# Where two headings read alike, the source gives them in different places.
# Columns and labels:
# U937 cells = test: H2O2-induced steroid insensitivity in U937 cells (dexamethasone IC50 on TNFα-induced IL-8); format: cell-based, human; conditions: highest concentration tested (100 μM); H2O2 200 μM
# Protocol: (§1) Cytokine ELISA. LPS-induced IL-8, TNFα concentrations and TNFα-induced IL-8 concentrations are determined by sandwich ELISA according to the manufacturer's instructions (R&D Systems Europe). IC50 values for dexamethasone on IL-8 production are calculated using the computer program Prism 4.0 (GraphPad Software Inc., San Diego, Calif.) as a marker for steroid sensitivity.
# Restoration of steroid sensitivity. U937 cells: U937 are treated with oxidative stress (H2O2, 200 μM or 0.15 dilution CSM (cigarette smoke conditioned medium)) and 4 hours later, stimulated with TNFα (10 ng/ml) in the presence of dexamethasone (10^−11-10^−6M). Supernatant and cells are collected 24 hrs after stimulation and IL-8 is measured by conventional ELISA. As the index of corticosteroid sensitivity, IC50 of dexamethasone is calculated. Test compounds are treated 20 min before oxidative stress treatment.
# Effects of compounds on H2O2-induced steroid insensitivity in U937 cells. Cells stimulated with H2O2 (200 μM) overnight are incubated with compounds described herein for 30 min under H2O2 (200 μM) exposure. The cells are treated with dexamethasone (10^−11 to 10^−6 M) for 20 min, followed by the TNFα stimulation overnight. TNFα-induced IL-8 release is evaluated by ELISA and IC50 values for dexamethasone on IL-8 production are calculated using Prism. Data are expressed as fold changes against positive control treated with H2O2 only. Values represent means of four experiments±SEM. H2O2 exposure reduces dexamethasone sensitivity by approximately 4 fold based on calculated IC50 values of TNFα-induced IL-8 production.
# TNFα = test: LPS-induced TNFα release in PMA-differentiated U937 cells (ELISA); format: cell-based, human; conditions: for IC50: LPS-induced TNFα release, PMA-differentiated U937, NA = inactive; for TNFα inhibition (%): test concentration not given
# Protocol: as §1
# (§2) Effects of compounds on LPS-induced IL-8 and TNFα release in PMA-differentiated U937 cells. PMA-differentiated macrophage-like cells are pretreated with compounds described herein for 1 hr, followed by LPS (100 ng/ml) stimulation for 4 hrs. LPS-induced IL-8 and TNFα release is evaluated by ELISA. Values represent means of three experiments±SEM.
# [1] = format: cell-based
# Protocol: The human monocytic cell line U937 and the human type II alveolar epithelial carcinoma cell line A549 were obtained from the American Type Culture Collection (ATCC, Rockville, Md.). PBMCs from COPD patients were obtained in Brompton hospital and separated by AccuSPIN (Sigma-Aldrich, Poole, UK). Cells were cultured in complete growth medium (Sigma-Aldrich) (RPMI 1640 for U937, PBMCs, and Dulbecco's modified essential medium (DMEM) for A549) supplemented with 10% fetal bovine serum (FBS) and 1% L-glutamine at 37° C. in a humidified atmosphere with 5% CO2. U937 were differentiated into an adherent macrophage-like morphology by exposure to PMA (50 or 100 ng/ml) for 48 hrs in complete growth medium. Cell viability was assessed microscopically by trypan blue staining. Cell toxicity was determined by MTT assay as needed. This study was approved by the ethics committee of the Royal Brompton Hospitals, and all subjects gave written informed consent.
# Akt = test: H2O2-induced phosphorylation of Akt in PMA-differentiated U937 cells (western blot); format: cell-based, human
# Protocol: Cell Lysis and Western Blotting. Whole cell protein extracts are prepared using modified RIPA buffer (50 mM Tris HCL pH 7.4, 0.5% NP-40, 0.25% Na-deoxycholate, 150 mM NaCl with freshly added complete protease (Roche). Phosphatase inhibitor (Active Motif) is also added when required. Protein concentration is determined using the Bio-Rad Protein Assay (Bio-Rad). Proteins are separated by SDS-PAGE under denaturing conditions, and electrotransferred to a nitrocellulose membrane (Amersham Biosciences, Amersham, U.K.) (Western blotting). The membranes are blocked in TBS containing 0.05% Tween 20 and 5% non-fat dried milk, and then incubated with anti-pAkt or Akt antibody followed by an horse radish peroxidase-conjugated secondary antibody (Dako UK Ltd., Ely, UK). Bound antibodies are visualized by ECL Plus (GE Healthcare UK Ltd., Little Chalfont, UK). The band density is calculated by densitometry (UVP Bioimaging Systems, Cambridge, UK) using Labworks software (Ultra-Violet Products, Cambridge, UK).
# Effects of compounds on H2O2-induced phosphorylation of Akt in PMA-differentiated U937 cells. PMA-differentiated macrophage-like cells are pretreated with compounds described herein for 20 min. After H2O2 (1 mM) stimulation for 30 min, cells are lysed. Phosphorylation levels of Akt are measured by western blot. Data are calculated relative to total protein, and expressed as fold changes against positive control treated with H2O2 only. Values represent means of three or four experiments±SEM.
# HDAC activity = test: H2O2-induced reduction of HDAC activity in PMA-differentiated U937 cells; format: cell-based, human; conditions: for HDAC activity reached compared with untreated controls: H2O2 200 μM, comparators at highest doses tested; for restoration of H2O2-reduced HDAC activity (%): test concentration not given, bracketed second value not explained
# Protocol: In cell HDAC assay. Cells are incubated with Fluor de Lys™ substrate for 1 hr before lyses. Total HDAC activity from whole cell extracts is measured using the HDAC Fluorimetric Assay/Drug Discovery Kit (BIOMOL® International, Inc., Plymouth Meeting, Pa.).
# HDAC expression: In cell HDAC activity assay: U937 is differentiated to macrophage type cells by PMA for 3 days. HDAC fluorescent substrate (Biomol) is added before exposure of oxidative stress (H2O2, 200 μM) or Tobacco smoke conditioned medium for 4 hrs. HDAC activity is measured (Biomol kit). Compounds at different concentrations are treated 20 min before oxidative stress treatment.
# PMA-differentiated macrophage-like cells are pretreated with compounds described herein for 20 min. After H2O2 (200 μM) stimulation for 4 hrs, HDAC activity is assayed. Data are expressed as fold changes against positive control treated with H2O2 only. Values represent means of four experiments±SEM.
# MMP9 = test: PMA-induced MMP9 expression in U937 cells (gelatin zymography); format: cell-based, human; conditions: for MMP9 inhibition (%): test concentration not given, bracketed second value not explained
# Protocol: Zymography. MMP9 enzyme activity is measured by gelatin zymography. 5 μl of supernatants were diluted with 5 μl Laemli sample buffer (Bio-Rad) and are loaded on a Novex® 10% Zymogram (Gelatin) gel (Invitrogen). After electrophoresis (90 min, 125 V, 35 mA, 5 W) gels are incubated with 1× Novex® zymogram renaturing buffer (Invitrogen) for 30 min at room temperature with gentle agitation. Gels are then rinsed in 1× Novex® zymogram developing buffer (Invitrogen) for 30 min at room temperature with gentle agitation prior to overnight incubation in the developing buffer at 37° C. After incubation the gels are stained using the colloidal blue staining kit (Invitrogen) with buffer containing 20% methanol and 70% distilled water to visualize the zymogen bands. Relevant band intensities are quantified by densitometric analysis using the UVP GelDoc-It system.
# Effects of compounds on PMA-induced MMP9 expression in U937 cells. U937 cells are pretreated with compounds described herein for 1 hr, followed by PMA (50 ng/ml) treatment for 48 hrs. After 48 hrs supernatants are collected for zymography. MMP9 enzyme activity is measured by gelatin zymography. Data are expressed as fold changes against positive control treated with PMA only. Values represent means of three experiments±SEM.
# IL-8 = test: LPS-induced IL-8 release in PMA-differentiated U937 cells (ELISA); format: cell-based, human; conditions: for IC50: LPS-induced IL-8 release, PMA-differentiated U937, NA = inactive; for IL-8 inhibition (%): test concentration not given
# Protocol: as §1, §2
# S. pneumoniae ATCC 49619 = test: MIC; format: cell-based
# S. aureus MRSA 33591 = test: MIC; format: cell-based
# E. faecium ATCC 19434 = test: MIC; format: cell-based
# H. influenzae LC002 = test: MIC; format: cell-based
# K. pneumonia 13883 = test: MIC; format: cell-based; conditions: in µg/mL
# [2] = system: S. aureus ATCC 29213 (MSSA) MLS-S; test: MIC; format: cell-based
# H. influenzae ATCC 49247 = test: MIC; format: cell-based
# HDAC2 mRNA = test: Cigarette smoke extract-induced reduction of HDAC2 mRNA in A549 cells; format: cell-based, human
# Protocol: Preparations of cigarette smoke extract. To prepare the cigarette smoke extract, two full-strength Marlboro cigarettes (filters removed; Phillip Morris USA, Richmond, Va.) are combusted through a modified 60-ml syringe apparatus, and the smoke passed through 20 ml of DMEM medium. Each cigarette generally yields five draws of the syringe (to the 60-ml mark), with each individual draw taking approximately 10 s to complete. Cigarette smoke extract is then passed through a 0.20-μm filter to sterilize and remove particulate matter and is used immediately unless otherwise stated.
# Quantitative RT-PCR. Total RNA extraction and reverse transcription are performed using an RNeasy kit (QIAGEN, Crawley, UK) and a High-Capacity cDNA Reverse Transcription Kits (Applied Biosystems, Foster City, Calif.). Gene transcript level of HDAC2 (HS00231032_M1, Applied Biosystems, California, USA) and the house-keeping gene, guanine nucleotide binding protein beta polypeptide-2-like 1 (GNB2L1) (HS00272002_M1, Applied Biosystems) are quantified by real-time PCR using a TaqMan® Gene Expression Master Mix (Applied Biosystems) on a Rotor-Gene 6000 (Corbett Research, Cambridge, UK). Transcripts are analysed by the delta (D) CT method and variations in cDNA concentrations between different samples were corrected using GNB2L1.
# Effects of macrolides on cigarette smoke extract-induced (CSE-induced) reduction of HDAC2 mRNA in A549 cells. Cells pretreated with compounds described herein for 30 min are exposed to CSE (0.15 O.D.) for 1 hr. The cells are washed twice and incubated with medium only for 4 hrs. Data are expressed as % reduction from baseline (left) or % increase from baseline under H2O2. Values represent means of three experiments±SEM. Example 33 reverses cigarette smoke extract-induced (CSE-induced) reduction of HDAC2 mRNA expression in A549 cells at concentrations of about 10 μM or greater, and with statistical significance of p<0.05 versus treatment with CSE only (one-way ANOVA with post hoc test, n=3) at doses of about 30 μM or greater.
smiles,measurement,setting,value
"CC[C@H]1OC(=O)[C@H](C)[C@@H](O[C@H]2C[C@@](C)(OC)[C@@H](O)[C@H](C)O2)[C@H](C)[C@@H](O[C@@H]2O[C@H](C)C[C@H](N(C)C)[C@H]2O)[C@](C)(OC)C[C@@H](C)C(=O)[C@H](C)[C@@H](O)[C@]1(C)O [CLR, clarithromycin, reference compound]",restoration of dexamethasone sensitivity,U937 cells,"None of ERY, CLR, or AZI restored dexamethasone sensitivity"
same,IC50,"TNFα; Homo sapiens, U-937",426 ± 64 µM
same,inhibition of LPS-induced TNFα release compared with Example 33,TNFα; LPS 100 ng/ml 4 hrs,at higher concentrations than Example 33
same,TNFα inhibition (%),TNFα,21%
same,Cell Toxicity (% cell death),[1]; human,−7%
same,inhibition of Akt phosphorylation compared with Example 33,"Akt; PMA-differentiated U937, H2O2 1 mM 30 min",only at much higher concentrations than Example 33
same,restoration of HDAC activity compared with Example 33,"HDAC activity; PMA-differentiated U937, H2O2 200 μM 4 hrs",only at much higher doses than Example 33
same,HDAC activity reached compared with untreated controls,HDAC activity; PMA-differentiated U937,only restore HDAC activity to levels comparable to untreated controls
same,restoration of H2O2-reduced HDAC activity (%),HDAC activity,14%
same,MMP9 inhibition (%),MMP9,8 (22) %
same,IC50,"IL-8; Homo sapiens, U-937",507 ± 44 µM
same,inhibition of LPS-induced IL-8 release compared with Example 33,IL-8; LPS 100 ng/ml 4 hrs,at higher concentrations than Example 33
same,IL-8 inhibition (%),IL-8,17%
CC[C@H]1OC(=O)[C@H](C)C(=O)[C@H](C)[C@@H](O[C@H]2C[C@@H](N(C)C)[C@H](O)[C@@H](C)O2)[C@@](C)(OC)C[C@@H](C)C(=O)[C@H](C)[C@H]2N(CCCCn3cc(-c4ccccn4)nn3)C(=O)O[C@]12C [Example 21],MIC S. pneumoniae ATCC 49619,S. pneumoniae ATCC 49619,> 64 µg/mL
same,TNFα inhibition (%),TNFα,14%
same,MIC S. aureus MRSA 33591,S. aureus MRSA 33591,> 64 µg/mL
same,Cell Toxicity (% cell death),[1]; test concentration not given,3%
same,MIC E. faecium ATCC 19434,E. faecium ATCC 19434,> 64 µg/mL
same,MIC H. influenzae LC002,H. influenzae LC002,> 64 µg/mL
same,restoration of H2O2-reduced HDAC activity (%),HDAC activity,36%
same,MIC K. pneumonia 13883,K. pneumonia 13883,>64
same,MIC S. aureus ATCC 29213 (MSSA) MLS-S,[2],> 64 µg/mL
same,MMP9 inhibition (%),MMP9,49 (41) %
same,MIC H. influenzae ATCC 49247,H. influenzae ATCC 49247,> 64 µg/mL
same,IL-8 inhibition (%),IL-8,59%
CCC1OC(=O)C(C)C(OC2CC(C)(OC)C(O)C(C)O2)C(C)C(OC2OC(C)CC(N(C)C)C2O)C(C)(O)CC(C)CN(C(C)=O)C(C)C2OC(=O)OC12C (centres unmarked) [Example 33],IC50,TNFα,97 ± 5 µM
same,concentration at which LPS-induced TNFα release is inhibited,"TNFα; pretreated 1 hr, LPS 100 ng/ml 4 hrs, p<0.01, n=3",≥ 100 µM
same,concentration at which inhibition of Akt phosphorylation is statistically significant,"Akt; p<0.05 versus H2O2 only, n=3 or 4",≥ 100 µM
same,HDAC activity reached compared with untreated controls,HDAC activity; PMA-differentiated U937,higher than untreated controls
same,concentration at which the H2O2-induced reduction in HDAC activity is restored,"HDAC activity; PMA-differentiated U937, pretreated 20 min, H2O2 200 μM 4 hrs",≥ 10 µM
same,concentration at which restoration of HDAC activity is statistically significant,"HDAC activity; p<0.01 versus H2O2 only, n=4",≥ 30 µM
same,concentration at which CSE-induced reduction of HDAC2 mRNA expression is reversed,"HDAC2 mRNA; A549, pretreated 30 min, CSE 0.15 O.D. 1 hr",≥ 10 µM
same,concentration at which reversal of HDAC2 mRNA reduction is statistically significant,"HDAC2 mRNA; p<0.05 versus CSE only, n=3",≥ 30 µM
same,IC50,"MMP9; PMA-induced MMP9 expression, U937, NA = inactive",56 ± 19 µM
same,concentration at which PMA-induced MMP9 up-regulation is inhibited,"MMP9; U937, pretreated 1 hr, PMA 50 ng/ml 48 hrs",≥ 33 µM
same,concentration at which inhibition of MMP9 up-regulation is statistically significant,"MMP9; p<0.05 versus PMA only, n=3",≥ 100 µM
same,IC50,IL-8,95 ± 14 µM
same,concentration at which LPS-induced IL-8 release is inhibited,"IL-8; pretreated 1 hr, LPS 100 ng/ml 4 hrs, p<0.05, n=3",≥ 100 µM

# Reference: patent US9937194B1, “Compounds and methods for treating inflammatory diseases” (priority 2009, dated 2018)
